pIC50: −log10 of the molar value.
Legend:
Human HDAC2 = target: T1, Human HDAC2 (Homo sapiens, UniProt Q92769); test: Biochemical HDAC enzymatic assay, HDAC2; conditions: incubation time 120 min
T1 construct: full-length with a C-terminal His-tag, MW=56 kDa; His-tag (C); made in house; host or cells: baculovirus expression system
Description: (§1) Incubation time for HDAC1/2 is 120 min, and 10 min for other HDACs.
Human HDAC2 (GenBank Accession No. NM_001527), full-length with a C-terminal His-tag, MW=56 kDa, was expressed in a baculovirus expression system.
(§2) • I. Compound handling: Testing compounds were dissolved in 100% DMSO to a specific concentration. The serial dilution was conducted by epMotion 5070 in DMSO. • II. HDAC reaction buffer: 50 mM Tris-HCl, pH8.0, 137 mM NaCl, 2.7 mM KCl, and 1 mM MgCl2, Added fresh: 1 mg/ml BSA, 1% DMSO. • III. Substrate: Fluorogenic HDAC General Substrate for HDAC1, 2, 3, 6, 10, 11 ans Sirt1, 2 and 3: Arg-His-Lys-Lys(Ac); HDAC8 only substrate: Arg-His-Lys(Ac)-Lys(Ac); Class2A Substrate (HDAC4, 5, 7 and 9): Acetyl-Lys(trifluoroacetyl)-AMC; Sirt5 substrate: Ac-Lys(succinyl)-AMC. • IV. General Reaction Procedure: (Standard IC50 determination) • a. Delivered 2× enzyme in wells of reaction plate except No Enzyme (No En) control wells. Add buffer in No En wells. • b. Delivered compounds in 100% DMSO into the enzyme mixture by Acoustic technology (Echo550; nanoliter range). Spin down and pre-incubation. • c. Delivered 2× Substrate Mixture (Fluorogenic HDAC Substrate and co-factor (500 μM of Nicotinamide adenine dinucleotide (NAD^+) in all Sirt assay) in all reaction wells to initiate the reaction. Spin and shake. • d. Incubated for 1-2 hr. at 30° C. with seal. • e. Added Developer with Trichostatin A (or TMP269 or NAD^+) to stop the reaction and to generate fluorescent color. • f. Fluorescence was read (excitatory, 360; emission, 460) using the EnVision Multilabel Plate Reader (Perkin Elmer) • g. Endpoint reading was taken for analysis after the development reaches plateau. • V. Data Analysis: The percentages of enzyme activity (relative to DMSO controls) and IC50 values were calculated using the GraphPad Prism 4 program based on a sigmoidal dose-response equation.
(§3) The inhibitory activities of HDAC of compounds of the invention were determined using biochemical HDAC assays. Compounds were tested at the indicated doses in the biochemical assays of HDAC1, HDAC2, HDAC3, HDAC4, HDAC5, HDAC6, HDAC7, HDAC8, HDAC9, HDAC10, or HDAC11 enzyme. The curve fit and IC50 values were calculated using the GraphPad Prism 4 program based on a sigmoidal dose-response equation.
as §2, with “[…]” for “μM”, “equation. […]” for “equation.”

Human HDAC1 = target: T2, Human HDAC1 (Homo sapiens, UniProt Q13547); test: Biochemical HDAC enzymatic assay, HDAC1; conditions: incubation time 120 min
T2 construct: full-length with a C-terminal His-tag and a C-terminal FLAG-tag; His-tag (C); FLAG-tag (C); made in house; host or cells: baculovirus expression system
Description: as §1
Human HDAC1 (GenBank Accession No. NM_004964), full-length with a C-terminal His-tag and a C-terminal FLAG-tag, MW=56 kDa, was expressed in a baculovirus expression system.
as §2, §3
as §2, with “[…]” for “μM”, “equation. […]” for “equation.”

[1] = target: T3, Complex of human HDAC3 and human NCOR2 (Homo sapiens, UniProt O15379); test: Biochemical HDAC enzymatic assay, HDAC3; conditions: incubation time 10 min
T3 construct: full-length with a C-terminal His tag, MW=49.7 kDa; His tag (C); made in house; host or cells: baculovirus expression system
Description: as §1
Complex of human HDAC3 (GenBank Accession No. NM_003883), full-length with a C-terminal His tag, MW=49.7 kDa, and human NCOR2 (amino acid 395-489) (GenBank Accession No. NM_006312), N-terminal GST tag, MW=37.6 kDa, was co-expressed in a baculovirus expression system.
as §2, §3
• I. Compound handling: Testing compounds were dissolved in 100% DMSO to a specific concentration. The serial dilution was conducted by epMotion 5070 in DMSO. • II. HDAC reaction buffer: 50 mM Tris-HCl, pH8.0, 137 mM NaCl, 2.7 mM KCl, and 1 mM MgCl2, Added fresh: 1 mg/ml BSA, 1% DMSO. • III. Substrate: Fluorogenic HDAC General Substrate for HDAC1, 2, 3, 6, 10, 11 ans Sirt1, 2 and 3: Arg-His-Lys-Lys(Ac); HDAC8 only substrate: Arg-His-Lys(Ac)-Lys(Ac); Class2A Substrate (HDAC4, 5, 7 and 9): Acetyl-Lys(trifluoroacetyl)-AMC; Sirt5 substrate: Ac-Lys(succinyl)-AMC. • IV. General Reaction Procedure: (Standard IC50 determination) • a. Delivered 2× enzyme in wells of reaction plate except No Enzyme (No En) control wells. Add buffer in No En wells. • b. Delivered compounds in 100% DMSO into the enzyme mixture by Acoustic technology (Echo550; nanoliter range). Spin down and pre-incubation. • c. […]

T2 sequence (Q13547 whole entry): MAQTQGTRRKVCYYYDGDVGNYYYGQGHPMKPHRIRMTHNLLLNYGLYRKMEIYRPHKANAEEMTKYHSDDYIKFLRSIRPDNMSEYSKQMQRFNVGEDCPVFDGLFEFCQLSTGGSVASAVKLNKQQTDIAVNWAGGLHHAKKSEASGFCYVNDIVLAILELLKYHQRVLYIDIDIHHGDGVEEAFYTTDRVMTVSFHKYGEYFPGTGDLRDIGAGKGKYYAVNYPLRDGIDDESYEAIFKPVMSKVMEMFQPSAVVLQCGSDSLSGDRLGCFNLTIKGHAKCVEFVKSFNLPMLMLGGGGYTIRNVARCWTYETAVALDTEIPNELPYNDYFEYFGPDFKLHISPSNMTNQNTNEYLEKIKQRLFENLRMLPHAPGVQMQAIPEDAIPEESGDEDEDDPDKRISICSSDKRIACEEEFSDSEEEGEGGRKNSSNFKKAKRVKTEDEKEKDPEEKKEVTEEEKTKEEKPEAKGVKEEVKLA
T3 sequence (O15379 whole entry): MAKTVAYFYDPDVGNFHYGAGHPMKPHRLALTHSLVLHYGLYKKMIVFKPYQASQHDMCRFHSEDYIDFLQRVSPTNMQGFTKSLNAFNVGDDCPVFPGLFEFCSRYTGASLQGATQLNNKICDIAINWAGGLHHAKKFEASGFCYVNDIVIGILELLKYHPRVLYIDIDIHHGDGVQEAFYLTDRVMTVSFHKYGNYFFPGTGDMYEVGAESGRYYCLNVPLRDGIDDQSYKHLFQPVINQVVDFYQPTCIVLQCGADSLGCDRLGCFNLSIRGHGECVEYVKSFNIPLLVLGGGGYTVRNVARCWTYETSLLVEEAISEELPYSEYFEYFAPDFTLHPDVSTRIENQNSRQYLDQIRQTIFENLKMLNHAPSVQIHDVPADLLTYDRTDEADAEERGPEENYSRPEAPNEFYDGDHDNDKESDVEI
T3 sequence (Q9Y618 395-489 partner limits assumed): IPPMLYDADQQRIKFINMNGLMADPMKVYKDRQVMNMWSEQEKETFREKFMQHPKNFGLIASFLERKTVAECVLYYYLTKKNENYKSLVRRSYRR
T1 sequence (Q92769 whole entry): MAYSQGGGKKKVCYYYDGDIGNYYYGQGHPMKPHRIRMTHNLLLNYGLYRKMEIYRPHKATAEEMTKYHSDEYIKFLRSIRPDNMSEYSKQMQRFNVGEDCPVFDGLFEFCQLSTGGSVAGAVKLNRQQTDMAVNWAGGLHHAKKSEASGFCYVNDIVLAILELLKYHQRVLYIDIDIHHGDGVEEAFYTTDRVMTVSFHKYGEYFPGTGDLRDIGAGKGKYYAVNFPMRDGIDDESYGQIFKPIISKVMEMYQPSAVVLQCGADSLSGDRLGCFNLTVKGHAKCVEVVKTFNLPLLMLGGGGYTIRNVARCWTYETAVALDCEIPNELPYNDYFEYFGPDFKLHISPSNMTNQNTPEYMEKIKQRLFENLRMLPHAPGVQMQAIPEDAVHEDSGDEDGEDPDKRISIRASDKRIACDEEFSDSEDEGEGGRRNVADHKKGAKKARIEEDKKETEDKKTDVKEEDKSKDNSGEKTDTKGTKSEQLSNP

| pIC50 (Human HDAC2; Table 2) | pIC50 (Human HDAC1; Table 2) | pIC50 ([1]; Table 2) | pIC50 (Human HDAC2; Table 1) | pIC50 (Human HDAC1; Table 1) | pIC50 ([1]; Table 1) | Structure (SMILES) |
| --- | --- | --- | --- | --- | --- | --- |
| – | – | – | 6.84 | 7.85 | < 4.70 | Nc1ccc(-c2cccs2)cc1NC(=O)c1ccc(CN2C(=O)CCC23CCNCC3)cc1 [Example 2, N-(2-amino-5-(thiophen-2-yl)phenyl)-4-((2-oxo-1,8-diazaspiro[4.5]decan-1-yl)methyl)benzamide] |
| – | – | – | 4.93 | 4.70 | 5.72 | Nc1cc(F)ccc1NC(=O)c1ccc(CN2C(=O)CCCC23CNC3)cc1 [Example 3, N-(2-amino-4-fluorophenyl)-4-((6-oxo-2,5-diazaspiro[3.5]nonan-5-yl)methyl)benzamide] |
| – | – | – | 7.19 | 8.15 | 4.76 | CN1CCC2(CC1)CN(c1ccc(C(=O)Nc3cc(-c4cccs4)ccc3N)cn1)C(=O)O2 [Example 4, N-(2-amino-5-(thiophen-2-yl)phenyl)-6-(8-methyl-2-oxo-1-oxa-3,8-diazaspiro[4.5]decan-3-yl)nicotinamide] |
| – | – | – | 6.94 | 7.64 | < 4.70 | Nc1ccc(-c2ccc(F)cc2)cc1NC(=O)c1ccc(N2CC3(CCOCC3)OC2=O)nc1 [Example 5, N-(4-amino-4′-fluoro-[1,1′-biphenyl]-3-yl)-6-(2-oxo-1,8-dioxa-3-azaspiro[4.5]decan-3-yl)nicotinamide] |
| – | – | – | 6.21 | 7.07 | < 4.70 | Nc1ccc(-c2cccs2)cc1NC(=O)c1ccc(N2CC3(CCNCC3)CCC2=O)nc1 [Example 6, N-(2-amino-5-(thiophen-2-yl)phenyl)-6-(3-oxo-2,9-diazaspiro[5.5]undecan-2-yl)nicotinamide] |

Second part, the molecule before the results:

| Structure (SMILES) | pIC50 (Human HDAC2; Table 2) | pIC50 (Human HDAC1; Table 2) | pIC50 ([1]; Table 2) | pIC50 (Human HDAC2; Table 1) | pIC50 (Human HDAC1; Table 1) | pIC50 ([1]; Table 1) |
| --- | --- | --- | --- | --- | --- | --- |
| O=C(NO)c1ccc(CN2C(=O)c3ccccc3C23OCCO3)cc1 [Compound Example 8, N-hydroxy-4-((3-oxospiro[isoindoline-1,2′-[1,3]dioxolan]-2-yl)methyl)benzamide] | < 5.00 | 5.10 | < 5.00 | – | – | – |
| O=C(NO)c1ccc(CN2C(=O)C3(CCOC3)c3ccccc32)cc1 (stereo not drawn) [Compound Example 9] | 4.76 | 5.04 | 4.68 | – | – | – |
| O=C(NO)c1ccc(CN2C(=O)c3ccccc3C23CCNCC3)cc1 [Compound Example 10, N-hydroxy-4-((3-oxospiro[isoindoline-1,4′-piperidin]-2-yl)methyl)benzamide] | < 5.00 | 5.22 | 5.15 | – | – | – |
| CN(C)C(=O)N1CCC2(CC1)c1ccccc1C(=O)N2Cc1ccc(C(=O)NO)cc1 [Compound Example 11, 2-(4-(hydroxycarbamoyl)benzyl)-N,N-dimethyl-3-oxospiro[isoindoline-1,4′-piperidine]-1′-carboxamide] | < 5.00 | < 5.00 | < 5.00 | – | – | – |
| O=C(NO)c1ccc(CN2C(=O)c3ccccc3C23CCN(C2CC2)CC3)cc1 [Compound Example 12, 4-((1′-cyclopropyl-3-oxospiro[isoindoline-1,4′-piperidin]-2-yl)methyl)-N-hydroxybenzamide] | < 5.00 | < 5.00 | 5.03 | – | – | – |
| Nc1ccc(-c2cccs2)cc1NC(=O)c1ccc(CN2C(=O)CCCC23CNC3)cc1 [Example 1, N-(2-amino-5-(thiophen-2-yl)phenyl)-4-((6-oxo-2,5-diazaspiro[3.5]nonan-5-yl)methyl)benzamide] | – | – | – | 7.22 | 8.22 | 4.89 |

— patent publication US11155550B2, “Histone deacetylase inhibitors and methods of use thereof” (Reaction Biology Corp., priority 2018, dated 2021)
